# Reference: US20100099564A1, “HERBICIDE COMBINATION COMPRISING DIMETHOXYTRIAZINYL-SUBSTITUTED DIFLUOROMETHANESULFONYLANILIDES” (BAYER CROPSCIENCE AG, priority 2008, published 2010)
# Read-outs that look alike come from different tables or passages of the source.
# Legend:
# Assay type in all cases: in vivo
# [1] = tested on: Lolium multiflorum (LOLMU); test: Post-emergence action, greenhouse pot test, visual scoring: LOLMU
# Procedure: (§1) Seeds or rhizome pieces of mono- and dicotyledonous harmful and useful plants were placed in peat pots (diameter 4 cm) filled with sandy loam and then covered with soil. The pots were kept in a greenhouse under optimum conditions. In addition, harmful plants encountered in paddy rice cultivation were cultivated in pots with a water level 2 cm above the soil surface.
# (§2) About three weeks after the start of the cultivation, the test plants were treated at the 2- to 3-leaf stage. The herbicides, formulated as powder or liquid concentrates, were, either alone or in the combinations according to the invention, sprayed in various dosages on to the green parts of the plants using an application rate of 600 l of water/ha (converted). For further cultivation of the plants, the pots were then again kept under optimum conditions in a greenhouse.
# (§3) The visual scoring of the herbicidal effects was carried out in intervals up to 21 days after the treatment. Scoring was carried out in percent in comparison to the untreated control plants. 0%=no herbicidal activity, 100%=complete herbicidal activity=complete kill.
# (§4) The percentages from the treatments with the herbicides alone (=individual application) and with the combinations according to the invention (=mixtures) were employed to calculate interactions using the method of Colby. When the observed efficacies of the mixtures exceed the formal sum of the values of the tests with individual applications, they also exceed the expected value according to Colby, which is calculated using the formula below (cf. S. R. Colby; in Weeds 15 (1967) pp. 20 to 22):
# (§5) Here: • A, B=activity of components A and B in percent at a dosage of a and b g of ai/ha (=gramm of active substance per hectare), respectively. • E=expected value in % at a dosage of a+b g of ai/ha.
# (§6) The combinations according to the invention of herbicides from group (A) with herbicides from group (B) were tested on a broad spectrum of important harmful plants (weed grasses, broad-leaved weeds/Cyperaceae) and useful plants: Triticum aestivum (TRZAS), Stellaria media (STEME), Lolium multiflorum (LOLMU), Veronica persica (VERPE), Alopecurus myosuroides (ALOMY), Matricaria inodora (MATIN), Brassica napus (BRSNW), Viola tricolor (VIOTR), Avena fatua (AVEFA), Amaranthus retroflexus (AMARE), Zea mays (ZEAMX), Pharbitis purpurea (PHBPU), Setaria viridis (SETVI), Fallopia (ex Polygonum) convolvulus (POLCO), Echinochloa crusgaffi (ECHCG), Abuthilon theophrasti (ABUTH), Cyperus esculentus (CYPES), Oryza sativa (ORYSA).
# (§7) Of particular interest are the results shown in the tables (Tab.) below, where the following key is used: • (1) EPPO code (former Bayer code) for the treated plant (see above) • (2) Time of scoring: DAT (days after treatment) • (3) Component A tested (identifying number) • (4) Component B tested (identifying number) • (5) Dosage component A [g of ai/ha] • (6) Dosage component B [g of ai/ha] • (7) % activity found • (8) E value (calculated according to Colby; see above) • (9) Comments: “SYNERGY” =synergistic interaction (E value<% activity found); “SAFENING”=safener action on useful plant (E value>% activity found)
# Veronica persica (VERPE) = test: Post-emergence action, greenhouse pot test, visual scoring: VERPE; conditions: 21 DAT
# Procedure: as §1, §2, §3, §4, §5, §6, §7
# [2] = tested on: Cyperus esculentus (CYPES); test: Post-emergence action, greenhouse pot test, visual scoring: CYPES; conditions: 21 DAT
# Procedure: as §1, §2, §3, §4, §5
# [3] = tested on: Triticum aestivum (TRZAS); test: Post-emergence action, greenhouse pot test, visual scoring: TRZAS
# Procedure: as §1, §2, §3, §4, §5, §6, §7
# Viola tricolor (VIOTR) = test: Post-emergence action, greenhouse pot test, visual scoring: VIOTR; conditions: for (7) % activity found: rate (6) 2
# Procedure: as §1, §2, §3, §4, §5, §6, §7
# Avena fatua (AVEFA) = test: Post-emergence action, greenhouse pot test, visual scoring: AVEFA
# Procedure: as §1, §2, §3, §4, §5, §6, §7
# Zea mays (ZEAMX) = test: Post-emergence action, greenhouse pot test, visual scoring: ZEAMX; conditions: for plant injury at 700 g/ha: B 700 g of ai/ha; for plant injury at 2100 g/ha: B 2100 g of ai/ha; for plant injury at 40 g/ha: B 40 g of ai/ha
# Procedure: as §1, §2, §3, §4, §5, §6, §7
# Oryza sativa (ORYSA) = test: Post-emergence action, greenhouse pot test, visual scoring: ORYSA
# Procedure: as §1, §2, §3, §4, §5, §6, §7
# [4] = tested on: Alopecurus myosuroides (ALOMY); test: Post-emergence action, greenhouse pot test, visual scoring: ALOMY; conditions: Alopecurus myosuroides, post-emergence, read-out: % activity found; for pest or weed control at 40 g/ha: B 40 g of ai/ha
# Procedure: as §1, §2, §3, §4, §5
# [5] = tested on: Matricaria inodora (MATIN); test: Post-emergence action, greenhouse pot test, visual scoring: MATIN
# Procedure: as §1, §2, §3, §4, §5
# [6] = tested on: Pharbitis purpurea (PHBPU); test: Post-emergence action, greenhouse pot test, visual scoring: PHBPU; conditions: 21 DAT
# Procedure: as §1, §2, §3, §4, §5, §6, §7
# Setaria viridis (SETVI) = test: Post-emergence action, greenhouse pot test, visual scoring: SETVI; conditions: Setaria viridis, post-emergence, 504 h, 21 DAT, read-out: % activity found
# Procedure: as §1, §2, §3, §4, §5, §6, §7
# [7] = tested on: Fallopia (ex Polygonum) convolvulus (POLCO); test: Post-emergence action, greenhouse pot test, visual scoring: POLCO; conditions: 21 DAT
# Procedure: as §1, §2, §3, §4, §5, §6, §7
# [8] = Zea mays, post-emergence, 240 h, 10 DAT, read-out: % activity found
# [9] = Zea mays, post-emergence, 504 h, 21 DAT, read-out: % activity found
structure (smiles),measurement,setting,value
"COCCOc1ccccc1S(=O)(=O)NC(=O)Nc1nc(OC)nc(OC)n1 [B7-6, N-[[(4,6-dimethoxy-1,3,5-triazin-2-yl)amino]carbonyl]-2-(2-methoxyethoxy)benzenesulfonamide]",% activity found,"[1]; 10 DAT, dose (6) 7",40%
same,% activity found,"[1]; 21 DAT, dose (6) 7",10%
same,% activity found,Veronica persica (VERPE); dose (6) 7,0%
same,% activity found,Veronica persica (VERPE); dose (6) 21,0%
same,% activity found,[2]; dose (6) 21,0%
"COC(=O)c1ccc(I)cc1S(=O)(=O)NC(=O)Nc1nc(C)nc(OC)n1.[Na] [B7-16, methyl 4-iodo-2-[[[[(4-methoxy-6-methyl-1,3,5-triazin-2-yl)amino]carbonyl]amino]sulfonyl]benzoate sodium salt]",(7) % activity found,"[3]; 10 DAT, rate (6) 2",40%
same,(7) % activity found,"[3]; 21 DAT, rate (6) 2",20%
same,(7) % activity found,"[3]; 21 DAT, rate (6) 6",60%
same,(7) % activity found,Viola tricolor (VIOTR); 10 DAT,70%
same,(7) % activity found,Viola tricolor (VIOTR); 21 DAT,90%
same,(7) % activity found,"Avena fatua (AVEFA); 21 DAT, rate (6) 2",10%
same,(7) % activity found,"Zea mays (ZEAMX); 10 DAT, rate (6) 2",30%
same,(7) % activity found,"Zea mays (ZEAMX); 10 DAT, rate (6) 6",20%
same,(7) % activity found,"Zea mays (ZEAMX); 21 DAT, rate (6) 2",0%
same,(7) % activity found,"Oryza sativa (ORYSA); 10 DAT, rate (6) 2",90%
same,(7) % activity found,"Oryza sativa (ORYSA); 21 DAT, rate (6) 2",70%
"CCC(=O)Nc1ccc(Cl)c(Cl)c1 [B3-8, N-(3,4-dichlorophenyl)propanamide]",plant injury at 700 g/ha,"[3]; Triticum aestivum, post-emergence, 504 h, 21 DAT, B 700 g of ai/ha, read-out: % activity found",10%
same,% activity found,"[1]; 10 DAT, B 700 g of ai/ha",0%
same,pest or weed control at 700 g/ha,"[4]; 504 h, 21 DAT, B 700 g of ai/ha",0%
same,pest or weed control at 2100 g/ha,"[4]; 504 h, 21 DAT, B 2100 g of ai/ha",20%
same,% activity found,"[5]; 10 DAT, B 700 g of ai/ha",0%
same,% activity found,"[5]; 10 DAT, B 2100 g of ai/ha",0%
same,% activity found,"[5]; 21 DAT, B 700 g of ai/ha",0%
same,% activity found,"[5]; 21 DAT, B 2100 g of ai/ha",0%
same,% activity found,"Viola tricolor (VIOTR); 21 DAT, B 700 g of ai/ha",60%
same,% activity found,"Viola tricolor (VIOTR); 21 DAT, B 2100 g of ai/ha",70%
same,% activity found,"Avena fatua (AVEFA); 10 DAT, B 700 g of ai/ha",20%
same,% activity found,"Avena fatua (AVEFA); 21 DAT, B 700 g of ai/ha",0%
same,% activity found,"Avena fatua (AVEFA); 21 DAT, B 2100 g of ai/ha",10%
same,plant injury at 700 g/ha,Zea mays (ZEAMX); [8],0%
same,plant injury at 2100 g/ha,Zea mays (ZEAMX); [8],0%
same,plant injury at 700 g/ha,Zea mays (ZEAMX); [9],0%
same,plant injury at 2100 g/ha,Zea mays (ZEAMX); [9],0%
same,% activity found,[6]; B 2100 g of ai/ha,40%
same,pest or weed control at 2100 g/ha,Setaria viridis (SETVI); B 2100 g of ai/ha,80%
same,% activity found,[7]; B 700 g of ai/ha,50%
same,% activity found,[2]; B 700 g of ai/ha,0%
same,% activity found,[2]; B 2100 g of ai/ha,0%
same,plant injury at 700 g/ha,"Oryza sativa (ORYSA); Oryza sativa, post-emergence, 504 h, 21 DAT, B 700 g of ai/ha, read-out: % activity found",0%
same,plant injury at 2100 g/ha,"Oryza sativa (ORYSA); Oryza sativa, post-emergence, 504 h, 21 DAT, B 2100 g of ai/ha, read-out: % activity found",0%
"O=C(Nc1ccc(F)cc1F)c1cccnc1Oc1cccc(C(F)(F)F)c1 [B3-1, N-(2,4-difluorophenyl)-2-[3-(trifluoromethyl)phenoxy]-3-pyridinecarboxamide]",plant injury at 40 g/ha,"[3]; Triticum aestivum, post-emergence, 240 h, 10 DAT, B 40 g of ai/ha, read-out: % activity found",20%
same,% activity found,"[1]; 21 DAT, B 120 g of ai/ha",30%
same,pest or weed control at 40 g/ha,"[4]; 240 h, 10 DAT",40%
same,pest or weed control at 40 g/ha,"[4]; 504 h, 21 DAT",10%
same,pest or weed control at 120 g/ha,"[4]; 504 h, 21 DAT, B 120 g of ai/ha",20%
same,plant injury at 40 g/ha,Zea mays (ZEAMX); [8],40%
same,plant injury at 120 g/ha,"Zea mays (ZEAMX); Zea mays, post-emergence, 240 h, 10 DAT, B 120 g of ai/ha, read-out: % activity found",40%
same,plant injury at 40 g/ha,Zea mays (ZEAMX); [9],30%
same,pest or weed control at 40 g/ha,Setaria viridis (SETVI); B 40 g of ai/ha,60%
same,% activity found,[2]; B 40 g of ai/ha,0%
same,% activity found,[2]; B 120 g of ai/ha,0%
same,plant injury at 40 g/ha,"Oryza sativa (ORYSA); Oryza sativa, post-emergence, 504 h, 21 DAT, B 40 g of ai/ha, read-out: % activity found",30%
same,plant injury at 120 g/ha,"Oryza sativa (ORYSA); Oryza sativa, post-emergence, 504 h, 21 DAT, B 120 g of ai/ha, read-out: % activity found",50%
"COc1cnc(OC)n2nc(NS(=O)(=O)c3c(OCC(F)F)cccc3C(F)(F)F)nc12 [B9-6, 2-(2,2-difluoroethoxy)-N-(5,8-dimethoxy[1,2,4]triazolo[1,5-c]pyrimidin-2-yl)-6-(trifluoromethyl)benzenesulfonamide]",(7) % activity found,"[3]; 10 DAT, rate (6) 15",10%
same,(7) % activity found,"[3]; 21 DAT, rate (6) 15",0%
same,(7) % activity found,"[1]; 21 DAT, rate (6) 5",20%
same,(7) % activity found,"Zea mays (ZEAMX); 10 DAT, rate (6) 5",0%
same,(7) % activity found,"Zea mays (ZEAMX); 10 DAT, rate (6) 15",30%
same,(7) % activity found,[6]; rate (6) 5,10%
same,(7) % activity found,[6]; rate (6) 15,30%
"COC(=O)c1ccc(CNS(C)(=O)=O)cc1S(=O)(=O)NC(=O)Nc1nc(OC)cc(OC)n1 [B7-17, methyl 2-[[[[(4,6-dimethoxy-2-pyrimidinyl)amino]carbonyl]amino]sulfonyl]-4-[[(methylsulfonyl)amino]methyl]benzoate]",(7) % activity found,"[3]; 10 DAT, rate (6) 2",40%
same,(7) % activity found,"[3]; 10 DAT, rate (6) 6",60%
same,(7) % activity found,"[3]; 21 DAT, rate (6) 2",20%
same,(7) % activity found,"[3]; 21 DAT, rate (6) 6",70%
same,(7) % activity found,"Avena fatua (AVEFA); 21 DAT, rate (6) 2",20%
same,(7) % activity found,"Avena fatua (AVEFA); 21 DAT, rate (6) 6",70%
same,(7) % activity found,"Zea mays (ZEAMX); 10 DAT, rate (6) 6",40%
same,(7) % activity found,[7]; rate (6) 2,40%
same,(7) % activity found,[7]; rate (6) 6,50%
same,(7) % activity found,"Oryza sativa (ORYSA); 10 DAT, rate (6) 6",90%
"COC(=O)c1csc(C)c1S(=O)(=O)NC(=O)n1nc(OC)n(C)c1=O [B8-3, methyl 4-[[[(4,5-dihydro-3-methoxy-4-methyl-5-oxo-1H-1,2,4-triazol-1-yl)carbonyl]amino]sulfonyl]-5-methyl-3-thiophenecarboxylate]",(7) % activity found,"[3]; 21 DAT, rate (6) 2",30%
same,(7) % activity found,Veronica persica (VERPE); rate (6) 2,40%
same,(7) % activity found,"Avena fatua (AVEFA); 21 DAT, rate (6) 0.7",50%
same,(7) % activity found,"Zea mays (ZEAMX); 21 DAT, rate (6) 2",20%
same,(7) % activity found,[2]; rate (6) 0.7,0%
same,(7) % activity found,"Oryza sativa (ORYSA); 10 DAT, rate (6) 0.7",50%
same,(7) % activity found,"Oryza sativa (ORYSA); 10 DAT, rate (6) 2",70%
same,(7) % activity found,"Oryza sativa (ORYSA); 21 DAT, rate (6) 2",40%
